Data reported in US20220323325A1, “COMPOSITIONS COMPRISING DISSUBSTITUTE TEREPHTHALATES AND ALSO LIGHT PROECTION FILTER SUBSTANCES, DEODORANT AND/OR ANTIPERSPIRANT ACTIVE INGREDIENTS” (Evonik Operations GmbH, priority 2019, published 2022).

Test: Dissolution capacity of UV light protection filters
Format: physicochemical
Conditions: 22° C., percentage by weight; for dissolution capacity for BEMT (maximal soluble amount): Bis-Ethylhexyloxyphenol Methoxyphenyl Triazine in the compound as solvent; for dissolution capacity for BMDM (maximal soluble amount): Butyl Methoxydibenzoylmethane in the compound as solvent; for dissolution capacity for EHT (maximal soluble amount): Ethylhexyl Triazone in the compound as solvent
Source text: To test the dissolution capacity of UV light protection filters, three representative UVA or UVB light protection filters were selected representatively. These are: • Butyl Methoxydibenzoylmethane (BMDM) • Ethylhexyl Triazone (EHT) • Bis-Ethylhexyloxyphenol Methoxyphenyl Triazine (BEMT).
To determine the dissolution capacity for these three UV light protection filters, a certain amount (50 g) of one of the compounds according to the invention was initially charged in each case and temperature-controlled at 22° C. A percentage by weight of a UV light protection filter was added and stirred until this amount had fully and homogeneously dissolved. This procedure was repeated until the maximal soluble amount of the UV light protection filter had been exceeded. […] If the maximum concentration had been roughly determined in this manner, a fine determination of the concentration range was repeated around this maximum concentration using smaller weighed amounts of the UV light protection filter.

CCCCCCCC(=O)OCCOc1ccccc1 [2-Phenoxyethyl octanoate, reference compound]
dissolution capacity for BEMT (maximal soluble amount): 11%
dissolution capacity for BMDM (maximal soluble amount): 18%
dissolution capacity for EHT (maximal soluble amount): 6%

CC(C)CCOC(=O)c1ccc(C(=O)OCCC(C)C)cc1 [Di(iso)pentyl terephthalate]
dissolution capacity for BEMT (maximal soluble amount): 13%
dissolution capacity for BMDM (maximal soluble amount): 22%
dissolution capacity for EHT (maximal soluble amount): 14%

CCCCOC(=O)c1ccc(C(=O)OCCCC)cc1 [Di(n-)butane terephthalate]
dissolution capacity for BEMT (maximal soluble amount): 23%
dissolution capacity for BMDM (maximal soluble amount): 23%
dissolution capacity for EHT (maximal soluble amount): 18%
